From PubChem BioAssay (NCI)
“And” between values parts separate entries of the source, which are not always exact repeats. Identical values can stand only once.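 All cell lines were grown in 96-well plates and treated with compound for 48 hours. GI50 marks 50% less growth. The concentration for full growth arrest is given as TGI.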

What was measured:
Test in all cases: growth of human tumour cells (NCI), 48 h
A549 NSCLC = system: A549 NSCLC
BT-549 breast = system: BT-549 breast
CCRF-CEM leukemia = system: CCRF-CEM leukemia
EKVX NSCLC = system: EKVX NSCLC
HS 578T breast = system: HS 578T breast
NCI-H460 lung = system: NCI-H460 lung
PC-3 prostate = system: PC-3 prostate
RPMI-8226 leukemia = system: RPMI-8226 leukemia
SF-295 CNS = system: SF-295 CNS
UACC-257 melanoma = system: UACC-257 melanoma

| SMILES | GI50 (A549 NSCLC) | TGI (A549 NSCLC) | GI50 (BT-549 breast) | TGI (BT-549 breast) | GI50 (CCRF-CEM leukemia) | TGI (CCRF-CEM leukemia) | GI50 (EKVX NSCLC) | TGI (EKVX NSCLC) | GI50 (HS 578T breast) | TGI (HS 578T breast) | GI50 (NCI-H460 lung) | TGI (NCI-H460 lung) | GI50 (PC-3 prostate) | TGI (PC-3 prostate) | GI50 (RPMI-8226 leukemia) | TGI (RPMI-8226 leukemia) | GI50 (SF-295 CNS) | TGI (SF-295 CNS) | GI50 (UACC-257 melanoma) | TGI (UACC-257 melanoma) |
| --- | --- | --- | --- | --- | --- | --- | --- | --- | --- | --- | --- | --- | --- | --- | --- | --- | --- | --- | --- | --- |
| Clc1ccc(-c2nc(-c3c[nH]c4ncccc34)cs2)cc1 | > 100 µM | > 100 µM | > 100 µM | > 100 µM | > 100 µM | > 100 µM | 0.582 µM | > 100 µM | > 100 µM | > 100 µM | > 100 µM | > 100 µM | > 100 µM | > 100 µM | > 100 µM | > 100 µM | > 100 µM | > 100 µM | > 100 µM | > 100 µM |
| O=C(/C=C/c1ccccc1Cl)c1ccc(O)cc1 | 7.33 µM | 25.1 µM | 2.3 µM | 6.76 µM | 6.18 µM | 35 µM | 10 µM | 25.8 µM | 2.33 µM | 7.19 µM | 4.4 µM | 16.8 µM | 5.65 µM | 26.5 µM | 0.495 µM | 3.39 µM | 8.97 µM | 23.7 µM | 9.79 µM | 22.5 µM |
| O=S(=O)(c1ccc2c(c1)C(=NO)c1cc(S(=O)(=O)N3CCCCC3)ccc1-2)N1CCCCC1 | > 1 µM and 0.187 µM | > 1 µM and 0.371 µM | 0.173 µM and 0.179 µM | 0.332 µM and 0.326 µM | 0.0727 µM | 0.338 µM | 0.575 µM and 0.174 µM | > 1 µM and 0.323 µM | 0.24 µM and 0.198 µM | 0.772 µM and 0.48 µM | 0.214 µM and 0.106 µM | 0.465 µM and 0.268 µM | 0.263 µM and 0.171 µM | 0.812 µM and 0.381 µM | 0.189 µM and 0.126 µM | 0.424 µM and 0.452 µM | 0.188 µM and 0.141 µM | 0.352 µM and 0.283 µM | 0.17 µM | 0.32 µM |
| C[C@@]12CCC[C@@](C)(C(=O)O)C1CC[C@]13C=C(CO)[C@](O)(CCC12)C3 (stereo partly specified) | > 100 µM | > 100 µM | > 100 µM | > 100 µM | 65.9 µM | > 100 µM | > 100 µM | > 100 µM | > 100 µM | > 100 µM | > 100 µM | > 100 µM | > 100 µM | > 100 µM | > 100 µM | > 100 µM | > 100 µM | > 100 µM | > 100 µM | > 100 µM |
| COc1ccc(C2=C(Br)C(=O)OC2)cc1Cl | 18.5 µM | 53.6 µM | 22.7 µM | 64.7 µM | 21.9 µM | > 68 µM | 16.7 µM | 71.4 µM | 41.2 µM | > 88.5 µM | 33.2 µM | > 100 µM | 33.1 µM | > 91.5 µM | 17.3 µM | 48.5 µM | 34 µM | 98.4 µM | 21 µM | 59.5 µM |
| CN(C)c1cc2c(cc1Sc1nc3c(N)nccc3n1CCNCC(C)(C)C)OCO2 | 0.438 µM | 18.7 µM | 4.22 µM | 25 µM | 0.317 µM | 18.2 µM | 1.34 µM | 35.2 µM | 2.04 µM | 23.7 µM | 0.376 µM | 12.1 µM | 0.615 µM | 28.8 µM | 0.658 µM | 19.4 µM | 0.444 µM | 13.6 µM | 0.473 µM | 11.9 µM |
| NC(=O)c1cccc(N)c1 | > 100 µM | > 100 µM | > 100 µM | > 100 µM | > 100 µM | > 100 µM | > 100 µM | > 100 µM | > 100 µM | > 100 µM | > 100 µM | > 100 µM | > 100 µM | > 100 µM | > 100 µM | > 100 µM | > 100 µM | > 100 µM | – | – |
| CCN1CCN(CCNc2nccc(-c3c(-c4cccc(O)c4)nc4sccn34)n2)S1(=O)=O | 15.4 µM and 9.27 µM | 32.5 µM and > 100 µM | 20.4 µM and 6.31 µM | 32.5 µM and 76.6 µM | 8.83 µM and 5.52 µM | 32.5 µM and 46.1 µM | > 32.5 µM and 34.6 µM | > 100 µM | 12.9 µM and 10 µM | 30.2 µM and > 100 µM | 11.8 µM and 5.86 µM | 32.5 µM and 78.3 µM | 17.6 µM and 20.1 µM | 32.5 µM and > 100 µM | 6.37 µM and 16.3 µM | 20.7 µM and 40.8 µM | 14.2 µM and 16.4 µM | 32.5 µM and 48.8 µM | 0.31 µM and 0.215 µM | 32.5 µM and 9.03 µM |
| CCN(CC)CCC(CNc1c2ccc([N+](=O)[O-])cc2nc2cc(OC)c(OC)cc12)c1ccccc1 (stereo unspecified) | 0.177 µM and 0.132 µM | 0.401 µM and 0.541 µM | 1.49 µM and 0.74 µM | 3.78 µM and 2 µM | 1.19 µM and 1.7 µM | 7.29 µM and 10.1 µM | 0.335 µM and 0.264 µM | 1.38 µM and 1.13 µM | 0.528 µM and 0.272 µM | 2.88 µM and 1.2 µM | 0.118 µM and 0.0525 µM | 1.05 µM and 0.631 µM | 0.305 µM and 0.209 µM | 1.01 µM and 0.98 µM | 0.272 µM and 0.0638 µM | 1.15 µM and 0.411 µM | 1.09 µM and 0.93 µM | 2.49 µM and 2.65 µM | 0.41 µM and 0.365 µM | 1.43 µM and 1.3 µM |
| NC(Cc1cc(Br)c(O)c(Br)c1)C(=O)O (stereo unspecified) | – | > 100 µM | – | > 100 µM | – | > 100 µM | – | > 100 µM | – | > 100 µM | – | > 100 µM | – | > 100 µM | – | > 100 µM | – | > 100 µM | – | > 100 µM |
| NC(=O)c1ncn(C2OC(CO)C(O)C2O)n1 (stereo unspecified) | 62 µM | > 100 µM | > 100 µM | > 100 µM | 4.73 µM | 49.6 µM | 70.2 µM | > 100 µM | > 100 µM | > 100 µM | 64.2 µM | > 100 µM | 59.6 µM | > 100 µM | 80.5 µM | > 100 µM | – | – | > 100 µM | > 100 µM |
